System: H1299, A549, H157, and H4006 cells
Assay: clonogenic survival assay, TTFields combined with E2F and CDK 4/6 inhibitors
Assay type: cell-based, Human
Settings: single inhibitor plus TTFields, Highest Single Agent approach
Description: FIGS. 6A-6B provide the results of exemplary clonogenic survival assays in four lung cancer cells lines—H1299, A549, H157, and H4006 cells—under various conditions testing combinations of TTFields with agents that dysregulate E2F signaling or CDK4/6 signaling at 24, 48, and 72 hours. […] Cell survival after increased exposure to TTFields alone, or in combination with a E2F inhibitor, a CDK 4/6 inhibitor or to a combination of E2F inhibitor and CDK 4/6 inhibitor is shown.
Human NSCLC cell lines (H157, H4006, A549, and H1299) were purchased from American Tissue Culture Collection. All these cell lines were grown in RPMI medium supplemented with 10% (v/v) fetal bovine serum (Atlanta Biologicals, Flowery Branch, Ga., USA) and penicillin/streptavidin (final concentration 50 μg/ml; Sigma-Aldrich, St. Louis, Mo., U29SA). All cells were grown at 37° C. in a humidified incubator constantly supplied with 5% CO2.
The inovitro system (NovoCure Ltd, Haifa, Israel) was used to generate TTFields that use two pairs of electrodes printed perpendicularly on the outer walls of a Petri dish composed of high dielectric constant ceramic (lead magnesium niobate-lead titanite (PMN-PT)). […] The temperature was measured by 2 thermistors (Omega Engineering, Stamford, Conn., USA) attached to the ceramic walls. […]

CCOc1ccc(C(Nc2ccccn2)c2ccc3ccc(C)nc3c2O)cc1C (stereo not shown) [HLM006474]
cell killing in combination with TTFields as compared to TTFields alone: enhanced cell killing synergistically
